Measured values: patent publication US7521463B2, “Immunomodulatory compounds” (University of Maryland, Baltimore, priority 2000, dated 2009)
“Also recorded” adds a separate entry of the source.

Legend:
[1] = test system: OKT-3 activated Jurkat cells; assay: Jurkat cell activation-dependent phosphorylation (OKT-3, anti-phosphotyrosine western blot); format: cell-based; conditions: for effect on tyrosine phosphorylation of Jurkat cellular proteins, dose response: OKT-3, 0.1, 1, 10 and 100 μM; for effect on cellular tyrosine phosphorylation stimulated by OKT-3: compound 100 μM, 5 min at 37° C.
Protocol: Phosphorylation in Jurkat cells activated by the monoclonal antibody, OKT-3, is correlated with T-cell activation.
A. Compounds are tested for their effect on OKT-3 activated Jurkat cells. OKT-3 is a monoclonal antibody against CD3-ε chain. Treatment of Jurkat cells with OKT-3 antibody for 5 min at 37° C. activates Jurkat cells and induces tyrosine phosphorylation of several cellular proteins. […] Experiments are carried out to determine if compounds of the invention, or known compounds which can serve as standards, affect cellular tyrosine phosphorylation stimulated by OKT-3 in Jurkat cells.
The assay is performed as follows: Jurkat cells (1×10^6 cells) in RPMI 1640 supplemented with 10% fetal bovine serum (FBS) are treated with OKT-3 antibody (0.2 μg) and compounds (100 μM) for 5 min at 37° C. Cultures are immediately placed on ice after the incubation period, washed 3 times with cold PBS and lysed in 20 μl of SDS-sample buffer. Samples are briefly sonicated and boiled for 5 min and applied to SDS-PAGE (12% gel). After SDS-PAGE, proteins are blotted onto Immobilon P membrane (Millipore) for western blot analysis. Membranes are blocked overnight with 5% dried milk in TBST (Tris buffered saline containing 1% triton X-100). After washing, blots are incubated with monoclonal anti-phosphotyrosine antibody for 1 h in TBST followed by 1 hr incubation with horseradish peroxidase (HRP)-conjugated goat anti-mouse IgG. Blots are developed using enhanced chemiluminescence (ECL, Pierce).
The assay is performed as follows: Western blot analyses using anti-phosphotyrosine antibody are performed. Compounds (e.g., inventive compounds I′, II′ and III′) are added at concentrations of 0.1, 1, 10 and 100 μM. Cells are cultured as above.

[2] = molecular target: p56^lck (Homo sapiens, UniProt P06239); assay: p56^lck kinase activity (general statement); format: biochemical
[3] = test system: Jurkat cells; assay: Effect on Jurkat cell viability / growth; format: cell-based; conditions: 10 μM
Protocol: Compounds can be tested to determine whether they are cytotoxic or cytostatic. To test whether a compound which inhibits OKT-3-mediated stimulation of tyrosine phosphorylation has a cytotoxic effect on Jukat cells, its effect on the growth of Jurkat cells is tested.

[4] = test system: IL-2 production in Jurkat cells; assay: Inhibition of IL-2 production in OKT-3 treated Jurkat cells (RIA); format: cell-based, human
Protocol: Interleukin 2 (IL-2) is an autocrine growth factor for T cells, the production of which requires T cell antigen receptor and co-receptor generated activation signals in normal T cells. The production of IL-2 is a hallmark of T cell activation signaling, leading to the clonal expansion of antigen-specific T cell clones. In Jurkat cells, treatment of cells with OKT-3 leads to the production of IL-2. […] For example, about 50% inhibition of IL-2 production is observed when cells are treated with 10 μM compound III′ at the time of OKT-3 treatment. […] Unlike the complete inhibition of OKT-3 induced tyrosine phosphorylation, the inhibition of IL-2 production by compound III′ is partial.
The assay is performed as follows: Jurkat cells (1×10^6 cells) are treated with OKT-3 antibody (0.2 μg) in the presence or absence of compounds (e.g., Compound III′) (0.1, 1 and 10 μM) for 24 h in RPMI 1640+10% FBS. At the end of the incubation period, culture media are harvested and assayed for human IL-2 by RIA. Cells treated with OKT-3 only and PMA+Ionomycin serves as a positive control. Untreated cells serve as a negative control. IL-2 production is not detected in untreated cells. Cells treated with 10 μM of Compound III′ are shown to inhibit IL-2 production by 44%. The standard deviation is 0.23 pg/ml.

p56^lck, sequence (P06239 whole entry): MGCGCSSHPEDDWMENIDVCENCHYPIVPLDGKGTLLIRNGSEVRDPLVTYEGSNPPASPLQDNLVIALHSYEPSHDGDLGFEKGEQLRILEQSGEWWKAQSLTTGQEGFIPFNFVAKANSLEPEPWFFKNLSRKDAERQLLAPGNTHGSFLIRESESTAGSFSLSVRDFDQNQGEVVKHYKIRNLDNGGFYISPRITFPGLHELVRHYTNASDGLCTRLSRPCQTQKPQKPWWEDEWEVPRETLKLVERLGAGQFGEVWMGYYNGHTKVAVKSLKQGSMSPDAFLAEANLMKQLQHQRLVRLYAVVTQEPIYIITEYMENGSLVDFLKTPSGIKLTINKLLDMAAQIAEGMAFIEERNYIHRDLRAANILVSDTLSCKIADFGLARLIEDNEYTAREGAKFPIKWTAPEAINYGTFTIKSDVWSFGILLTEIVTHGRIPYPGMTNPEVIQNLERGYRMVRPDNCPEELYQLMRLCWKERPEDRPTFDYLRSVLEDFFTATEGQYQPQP

What does the source list for `CC(=O)OCc1cccc2cccc(Sc3ccccc3C(=O)O)c12` [Compound I′]?
effect on tyrosine phosphorylation of Jurkat cellular proteins, dose response [1]: significantly stimulate tyrosine phosphorylation of Jurkat cellular proteins in a dose-dependent manner; also recorded: dose-dependent stimulation of tyrosine phosphorylation; effect on cellular tyrosine phosphorylation stimulated by OKT-3 [1]: stimulatory activity; effect on p56^lck kinase activity [2]: activates p56^lck kinase activity

What does the source list for `O=C(Sc1ccccn1)c1ccc(Oc2ccc(Cl)cc2Cl)c([N+](=O)[O-])c1` [Compound III′]?
effect on tyrosine phosphorylation at the lowest concentration ([1]; OKT-3, 0.1 μM): inhibits tyrosine phosphorylation; effect on tyrosine phosphorylation of Jurkat cellular proteins, dose response [1]: completely inhibits tyrosine phosphorylation of cellular proteins; effect on cellular tyrosine phosphorylation stimulated by OKT-3 [1]: inhibitory activity; cytotoxic effect on Jurkat cells [3]: no cytotoxic effect is observed; effect on the growth of Jurkat cells [3]: some cytostatic effect; time after addition of compound at which Jurkat cells resume normal rate of growth [3]: 24 h; inhibition at 10 µM ([4]; Homo sapiens, Jurkat, 24 h, 10 μM, at the time of OKT-3 treatment): ~50%; effect on IL-2 production at lower concentrations ([4]; lower concentrations (0.1, 1 μM), OKT-3, 24 h): no observable effect; effect on p56^lck kinase activity [2]: inhibits p56^lck kinase activity
